According to US9840525B2, “Crystal form of tenofovir prodrug, preparation method thereof, and method of use thereof” (Jiangsu Hansoh Pharmaceutical Group Co., Ltd., priority 2014, dated 2017):

Legend:
Stability Study = assay type: physicochemical; details: for Appearance / Crystal Form / Product Purity: 30° C. ± 2° C./RH 65% ± 5%
From the text: The stability of the new crystal form prepared by the method of Example 1 of the present invention was studied.

Flowability Study = assay type: physicochemical
From the text: The flowability of the new crystal form prepared in Examples 1, 2 and 3 of the present invention was studied.

[1] = Determination of Absolute Bioavailability; details: rat, in vivo; rats, intravenous administration and oral administration

CC(C)OC(=O)C(C)(C)N[P@](=O)(CO[C@H](C)Cn1cnc2c(N)ncnc21)Oc1ccccc1.O=C(O)/C=C/C(=O)O [crystal form A, 9-[(R)-2-[[(S)-[[[1-(isopropoxycarbonyl)-1-methyl]ethyl]amino]phenoxyphosphinyl]methoxyl]propyl]adenine fumarate]
Appearance (Stability Study; 0 month): off-white powder
Crystal Form (Stability Study; 0 month): Crystal form A
Product Purity (Stability Study; 0 month): 98.97%
Appearance (Stability Study; 3 months): off-white powder
Crystal Form (Stability Study; 3 months): Crystal form A
Product Purity (Stability Study; 3 months): 98.95%
Appearance (Stability Study; 6 months): off-white powder
Crystal Form (Stability Study; 6 months): Crystal form A
Product Purity (Stability Study; 6 months): 98.92%
Stability (Stability Study; room temperature): stable at room temperature
Chemical degradation in the stability test (Stability Study; stability test): did not undergo chemical degradation
Crystal form transformation in the stability test (Stability Study; stability test): did not undergo transformation
Flowability (Flowability Study): good flowability
Repose Angle (Flowability Study; listed as Example 1): 36°
Repose Angle (Flowability Study; listed as Example 2): 35°
Repose Angle (Flowability Study; listed as Example 3): 34°
bioavailability [1]: 81%
